In US20030224503A1, “In-situ microorganism generation for treating subsurface DNAPL source zones” (priority 2002, published 2003):

Tested on: groundwater microorganisms
Conditions: both DNAPL test sites (MW-12R, RW-1)
Excerpt: The test sites are located at a property where fractured bedrock has been contaminated with PCE and TCE DNAPL to a depth of approximately 120 feet below ground surface.

## CC(=O)O [acetic acid]
After injection of acetic acid, FIG. 4
  adaptation of groundwater microorganisms: increased
Fractured bedrock, after vs before injection of acetic acid, FIG. 3
  change in biomass of groundwater microorganisms: increased
